Test results published in patent publication US20260116910A1, “POLYCYCLIC COMPOUNDS AND METHODS THEREOF” (HEPAITECH (BEIJING) BIOPHARMA TECHNOLOGY CO., LTD., priority 2021, published 2026).
Read-outs that look alike come from different tables or passages of the source.

How the values were obtained:
human FXR (NR1H4) = target: T1, human FXR (NR1H4) (Homo sapiens, UniProt Q96RI1); assay: Human FXR (NR1H4) agonist assessment, FXRE-NanoLuc reporter in HEK293T cells; format: cell-based
T1 sequence (Q96RI1 1-476 isoform Q96RI1-1): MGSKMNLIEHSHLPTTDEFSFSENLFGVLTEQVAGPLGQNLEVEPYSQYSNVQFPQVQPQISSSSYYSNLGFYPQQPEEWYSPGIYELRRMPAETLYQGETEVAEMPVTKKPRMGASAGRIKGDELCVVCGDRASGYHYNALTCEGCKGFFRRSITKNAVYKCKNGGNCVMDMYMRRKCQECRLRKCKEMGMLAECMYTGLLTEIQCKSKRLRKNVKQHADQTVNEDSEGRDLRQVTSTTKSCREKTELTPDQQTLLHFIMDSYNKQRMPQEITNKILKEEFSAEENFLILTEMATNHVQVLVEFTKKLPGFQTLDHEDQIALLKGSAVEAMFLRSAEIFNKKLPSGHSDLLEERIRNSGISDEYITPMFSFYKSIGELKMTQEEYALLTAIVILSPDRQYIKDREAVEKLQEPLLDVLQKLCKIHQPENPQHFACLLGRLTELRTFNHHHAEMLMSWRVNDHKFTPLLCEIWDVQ
Method in brief: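 HEK293T cells stably expressing human FXR with an FXRE-NanoLuc reporter were treated with compounds for 24 hr at 37 °C, with 0.01% DMSO as negative control. Medium was read for luminescence after 5 min with coelenterazine. EC50 was fitted by sigmoid to concentration-response data.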

MRGPRX4 = MRGPRX4 (Homo sapiens, UniProt Q96LA9); assay: MRGPRX4 activation, Fluo-8 Ca2+ FLIPR assay in HEK293T cells stably expressing MRGPRX4; format: cell-based; set-up: key to MRGPRX4 activation, Average / MRGPRX4 activation, Ave.: fluorescence change dF/F0
Method in brief: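 Cells seeded overnight to >95% confluence, loaded 40-60 min at room temperature with 2 μM Fluo-8 AM, then kept in HHBS. Baseline read 30 s, compound added, signal followed 150 s more.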

[1] = FXR activation, HEK293T FXRE-NanoLuc reporter, 24 hr
[2] = FXR activation, HEK293T FXRE-NanoLuc reporter, 24 hr, read-out: EC50
[3] = MRGPRX4 activation, Ca2+ fluorescence, no activation in tested range reported as III, read-out: Activity (EC50 μM)

MRGPRX4, sequence (Q96LA9 whole entry): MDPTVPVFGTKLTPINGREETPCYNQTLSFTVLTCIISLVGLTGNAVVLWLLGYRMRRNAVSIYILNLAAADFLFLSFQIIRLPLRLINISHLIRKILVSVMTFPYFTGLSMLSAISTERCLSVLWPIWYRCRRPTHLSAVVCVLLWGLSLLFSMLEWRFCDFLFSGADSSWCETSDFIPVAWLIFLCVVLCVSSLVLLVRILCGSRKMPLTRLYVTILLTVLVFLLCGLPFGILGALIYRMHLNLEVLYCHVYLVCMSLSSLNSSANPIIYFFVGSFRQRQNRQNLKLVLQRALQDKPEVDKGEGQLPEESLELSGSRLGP

SMILES | Efficacy (maximum measured induction of NanoLuc, normalized to CDCA set as 100%) (human FXR (NR1H4); [1]) | EC50 (human FXR (NR1H4); [2]) [µM] | MRGPRX4 activation, Average (MRGPRX4; E3-9, Conc. (Log[M]) −4.0) | MRGPRX4 activation, Average (MRGPRX4; E3-9, Conc. (Log[M]) −4.5) | MRGPRX4 activation, Average (MRGPRX4; E3-9, Conc. (Log[M]) −5.0) | MRGPRX4 activation, Average (MRGPRX4; E3-9, Conc. (Log[M]) −5.4) | MRGPRX4 activation, Average (MRGPRX4; E3-9, Conc. (Log[M]) −5.9) | MRGPRX4 activation, Average (MRGPRX4; E3-9, Conc. (Log[M]) −6.4) | MRGPRX4 activation, Average (MRGPRX4; E3-9, Conc. (Log[M]) −6.9) | MRGPRX4 activation, Average (MRGPRX4; E3-9, Conc. (Log[M]) −7.3) | MRGPRX4 activation, Average (MRGPRX4; E3-9, Conc. (Log[M]) −7.8) | MRGPRX4 activation, Average (MRGPRX4; E3-9, Conc. (Log[M]) −8.3) | EC50 (MRGPRX4; [3]) [µM] | other results
CC[C@H]1[C@@H](O)[C@@H]2[C@H](CC[C@]3(C)[C@@H]([C@H](C)CCNC(=O)NS(=O)(=O)c4cccs4)CC[C@@H]23)[C@@]2(C)CCCC[C@@H]12 [5-25] | C (100%<efficacy <=300%) | 1 to 10 | 0.393 | 0.016 | 0.001 | 0.016 | 0.011 | 0.011 | 0.008 | 0.013 | 0.013 | 0.018 | > 100 | 
CC[C@H]1[C@@H](O)[C@@H]2[C@H](CC[C@]3(C)[C@@H]([C@H](C)CCNC(=O)NS(=O)(=O)c4ccc5c(c4)CCC(C)(C)O5)CC[C@@H]23)[C@@]2(C)CCCC[C@@H]12 [5-29] | A (efficacy >400%) | < 1 | 0.014 | 0.014 | 0.010 | 0.018 | 0.016 | 0.018 | 0.018 | 0.016 | 0.020 | 0.018 | > 100 | 
CC[C@H]1[C@@H](O)[C@@H]2[C@H](CC[C@]3(C)[C@@H]([C@H](C)CCNC(=O)NS(=O)(=O)c4ccc(N5CCCCC5)nc4)CC[C@@H]23)[C@@]2(C)CCCC[C@@H]12 [5-30] | A (efficacy >400%) | < 1 | 0.014 | 0.018 | 0.014 | 0.027 | 0.018 | 0.023 | 0.021 | 0.025 | 0.018 | 0.028 | > 100 | 
CC[C@H]1[C@@H](O)[C@@H]2[C@H](CC[C@]3(C)[C@@H]([C@H](C)CCNS(=O)(=O)c4cc(F)ccc4F)CC[C@@H]23)[C@@]2(C)CCCC[C@@H]12 [6-2] | C (100%<efficacy <=300%) | 1 to 10 | 0.030 | 0.023 | 0.013 | 0.020 | 0.016 | 0.016 | 0.016 | 0.018 | 0.011 | 0.018 | > 100 | 
CC[C@H]1[C@@H](O)[C@@H]2[C@H](CC[C@]3(C)[C@@H]([C@H](C)CCNS(=O)(=O)C[C@]45CC[C@H](CC4=O)C5(C)C)CC[C@@H]23)[C@@]2(C)CCCC[C@@H]12 [6-3] | C (100%<efficacy <=300%) | 1 to 10 | 0.016 | 0.008 | 0.020 | 0.016 | 0.018 | 0.018 | 0.011 | 0.018 | 0.020 | 0.013 | > 100 | 
CC[C@H]1[C@@H](O)[C@@H]2[C@H](CC[C@]3(C)[C@@H]([C@H](C)CCNS(=O)(=O)CC(C)C)CC[C@@H]23)[C@@]2(C)CCCC[C@@H]12 [6-4] | C (100%<efficacy <=300%) | > 10 | 0.027 | 0.011 | 0.011 | 0.018 | 0.016 | 0.011 | 0.018 | 0.018 | 0.020 | 0.018 | > 100 | 
CC[C@H]1[C@@H](O)[C@@H]2[C@H](CC[C@]3(C)[C@@H]([C@H](C)CCNS(=O)(=O)C4CC4)CC[C@@H]23)[C@@]2(C)CCCC[C@@H]12 [6-5] | C (100%<efficacy <=300%) | 1 to 10 | 0.025 | 0.020 | 0.018 | 0.020 | 0.018 | 0.016 | 0.018 | 0.016 | 0.020 | 0.018 | > 100 | 
CC[C@H]1[C@@H](O)[C@@H]2[C@H](CC[C@]3(C)[C@@H]([C@H](C)CCN=C=S)CC[C@@H]23)[C@@]2(C)CCCC[C@@H]12 [7-1] | C (100%<efficacy <=300%) |  | 0.020 | 0.018 | 0.013 | 0.013 | 0.011 | 0.013 | 0.004 | 0.008 | 0.006 | 0.011 |  | EC50 (human FXR (NR1H4)): > 10 µM; EC50 (MRGPRX4): > 100 µM
CC[C@H]1[C@@H](O)[C@@H]2[C@H](CC[C@]3(C)[C@@H]([C@H](C)CCNC(=O)C(=O)NS(=O)(=O)c4cccs4)CC[C@@H]23)[C@@]2(C)CCCC[C@@H]12 [8-2] |  | < 1 | 0.020 | 0.018 | 0.018 | 0.016 | 0.018 | 0.011 | 0.018 | 0.008 | 0.011 | 0.006 | > 100 | Efficacy (maximum measured induction of NanoLuc, normalized to CDCA set as 100%) (human FXR (NR1H4)): B (key: A: efficacy >400%; B: 300%<efficacy <=400%; C: 100%<efficacy <=300%; D: efficacy <=100%)
CC[C@H]1[C@@H](O)[C@@H]2[C@H](CC[C@]3(C)[C@@H]([C@H](C)CCNC(=O)C(=O)NS(=O)(=O)c4ccc(C(C)(C)CF)cc4)CC[C@@H]23)[C@@]2(C)CCCC[C@@H]12 [8-3] | C (100%<efficacy <=300%) | < 1 | 0.023 | 0.016 | 0.016 | 0.023 | 0.025 | 0.013 | 0.013 | 0.013 | 0.011 | 0.018 | > 100 | 
CC[C@H]1[C@@H](O)[C@@H]2[C@H](CC[C@]3(C)[C@@H]([C@H](C)CCNC(=O)C(=O)NS(=O)(=O)c4cc(F)cc(F)c4)CC[C@@H]23)[C@@]2(C)CCCC[C@@H]12 [8-4] | B (300%<efficacy <=400%) | < 1 |  |  |  |  |  |  |  |  |  |  | > 100 | MRGPRX4 activation, Ave. (MRGPRX4; E3-7, Conc. (Log[M]) −4): −0.041; MRGPRX4 activation, Ave. (MRGPRX4; E3-7, Conc. (Log[M]) −4.5): −0.027; MRGPRX4 activation, Ave. (MRGPRX4; E3-7, Conc. (Log[M]) −5): −0.014; MRGPRX4 activation, Ave. (MRGPRX4; E3-7, Conc. (Log[M]) −5.5): −0.014; MRGPRX4 activation, Ave. (MRGPRX4; E3-7, Conc. (Log[M]) −6): 0.000; MRGPRX4 activation, Ave. (MRGPRX4; E3-7, Conc. (Log[M]) −7): 0.000
CC[C@H]1[C@@H](O)[C@@H]2[C@H](CC[C@]3(C)[C@@H]([C@H](C)CCNC(=O)C(=O)NS(=O)(=O)c4cc(F)ccc4F)CC[C@@H]23)[C@@]2(C)CCCC[C@@H]12 [8-5] | C (100%<efficacy <=300%) | < 1 | 0.030 | 0.016 | 0.018 | 0.018 | 0.018 | 0.016 | 0.020 | 0.016 | 0.011 | 0.011 | > 100 | 
